Measured values as given in US20040127403A1, “Methods for treating and preventing Gram-positive bacteremias” (priority 2002, published 2004).
“And” between values parts separate entries of the source, which are not always exact repeats. Equal values may be shown once.

How the values were obtained:
[1] = system: VanA strain of E. faecium (VRE); experiment: Suppression of VRE in a mouse colonization model; type: in vivo, Mice
Experimental: Mice were colonized with a clinical isolate VanA strain of E. faecium (VRE) isolated from a septicemic patient. A single inoculation of 5×10^8 cfu VRE by oral gavage (Day 0) was followed by treatment with vancomycin in the drinking water to maintain colonization. On day 22, each group received the same vancomycin-containing drinking water. One group also received ramoplanin (100 μg/mL) in its drinking water. The dose of ramoplanin per day was estimated to be 15 mg/kg, based on a standard water consumption of 150 mL/kg/day. Treatment with ramoplanin was discontinued on Day 29, and vancomycin treatment was discontinued on Day 36. The control group consisted of five mice, while the ramoplanin group consisted of four mice.

peptidoglycan synthesis = experiment: Macromolecular biosynthesis (carbon-14 precursor incorporation); type: cell-based; conditions: ramoplanin at the MIC
Experimental: (§1) The efficacy of ramoplanin was tested against recently isolated VRE that are resistant to linezolid and quinupristin/dalfopristin. The culture media containing ramoplanin was supplemented with 0.02% bovine serum albumin (BSA) to prevent ramoplanin binding to the plastic. MIC values were determined in both cation-adjusted Mueller-Hinton broth (CAMHB) and trypticase soy broth (TSB) by the National Committee for Clinical Laboratory Standards (NCCLS) broth microdilution method. Macromolecular biosynthesis experiments were done by following the incorporation of carbon-14-labeled N-acetylglucosamine, acetic acid, amino acids, uridine, and thymidine into peptidoglycan, fatty acid, protein, RNA and DNA, respectively.

VRE [2] = experiment: Time-kill studies against VRE; type: cell-based
[3] = Multiple dose study in healthy male volunteers: absorption and fecal concentrations; type: in vivo, human
Experimental: Healthy male volunteers were administered 200, 400, or 800 mg ramoplanin twice-a-day, for ten consecutive days. The predetermined dose was reconstituted in 5 mL water per vial, mixed with 50 mL of sweetened, aromatized solution, and immediately administered orally to the subjects.
No absorption from the human gastrointestinal tract was observed.

[4] = Storage stability of ramoplanin granules and reconstituted solution; type: physicochemical; conditions: refrigerated conditions
Experimental: Ramoplanin is available as granules for oral solution, provided, for example, in packets containing 400 mg free base of ramoplanin, along with pharmaceutically acceptable excipients (e.g., mannitol, hydroxypropyl methylcellulose, magnesium stearate). The contents of the packet can be reconstituted with approximately 15-30 mL of water, and the resulting solution either consumed directly, or further diluted with water, cranberry juice, apple juice, or 7-Up prior to drinking. After consumption, the drug may be followed with subsequent amounts of these beverages or with food (e.g., cracker, bread). […] The reconstituted ramoplanin aqueous solution has a shelf life of 48 hours when stored at refrigerated conditions.

S. epidermidis ATCC18972 = experiment: MIC, NCCLS broth microdilution; type: cell-based; conditions: S. epidermidis ATCC18972
E. faecium A 6350 Line-R = experiment: MIC, NCCLS broth microdilution; type: cell-based; conditions: E. faecium A 6350 Line-R (Table 2)
Method in brief: (§2)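 Each MIC was measured in two broths, CAMHB and TSB, using the NCCLS microdilution procedure; 0.02% bovine serum albumin was added with ramoplanin.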

E. faecium UA392 = experiment: MIC, NCCLS broth microdilution; type: cell-based; conditions: E. faecium UA392
Method in brief: as §2

E. faecalis ATCC51299 = experiment: MIC, NCCLS broth microdilution; type: cell-based; conditions: E. faecalis ATCC51299
Method in brief: as §2

[5] = system: S. aureus ATCC700699 MRSA/VISA; experiment: MIC, NCCLS broth microdilution; type: cell-based; conditions: S. aureus ATCC700699 MRSA/VISA
Method in brief: as §2

S. epidermidis ATCC35984 = experiment: MIC, NCCLS broth microdilution; type: cell-based; conditions: S. epidermidis ATCC35984
[6] = In vitro interaction of ramoplanin with human intestinal contents
Description: The in vitro interaction of ramoplanin with human intestinal contents was studied. […] The binding and the subsequent release of ramoplanin from feces would likely result in long-lasting concentrations in the intestinal tract.

VRE [7] = experiment: Multiple dose study in asymptomatic carriers of intestinal VRE; type: in vivo, human; conditions: for patients with no detectable VRE, number / patients with no detectable VRE: Day 7; for patients with no detectable VRE: rectal swab; for patients VRE free: Day 14 (seven days after cessation); for patients VRE free, number: Day 14
Experimental: Patients identified as asymptomatic carriers of VRE were administered placebo or one of two dosages (100 mg, 400 mg) of ramoplanin b.i.d. (twice daily) for seven days. Patients were assessed by rectal swab on Days 7, 14, and 21 to determine the presence or absence of VRE. On Days 45 and 90, stool samples were analyzed for long-term effects of ramoplanin on the recurrence of, or re-infection with, VRE. All VRE isolates were tested for susceptibility to ramoplanin.

VRE [8] = experiment: MIC against VRE, NCCLS broth microdilution; type: cell-based; conditions: all VRE in this study cultured in CAMHB
Experimental: as §1

[9] = Day 29, completion of ramoplanin therapy, 25 mg/kg/day vancomycin + 15 mg/kg/day ramoplanin in drinking water

For Ramoplanin, the “% Mice with VRE” value [1, 9] was 0%, the “Enterococci in faeces: Total Enterococci” value [1, 9] was under 2.4 log 10 cfu/g faeces and the “Enterococci in faeces: VRE” value [1, 9] was under 3.1 log 10 cfu/g faeces. The “VRE concentration per gram of feces” value ([1]; mice, after one week of ramoplanin treatment, all animals (undetectable level)) was under 3.1 log units, the “VRE concentration per gram of feces” value ([1]; mice, before ramoplanin treatment) was 9.7 log units and the “fecal density and carriage of VRE” value ([1]; mice, ramoplanin 100 μg/mL in drinking water) was “significantly reduced”. For the same substance, the “first macromolecular biosynthetic pathway inhibited” value (peptidoglycan synthesis) was “peptidoglycan synthesis”, the time-kill activity (VRE [2]) was “bactericidal activity” and the “absorption from the human gastrointestinal tract” value ([3]; 200, 400 or 800 mg twice-a-day, ten days) was “No absorption”. The “urine levels of ramoplanin” value ([3]; Day 1 and 5 and pooled urine up to 72-96 after the last dose) was “No levels were found in urine”, the “average fecal concentration of ramoplanin” value (“average fecal concentration” below) ([3]; Day 3, 200 mg twice-a-day) was 827 µg/g and the “average fecal concentration” value ([3]; Day 3, 400 mg twice-a-day) was 1742 µg/g. For the same substance, the “average fecal concentration” value ([3]; Day 3, 800 mg twice-a-day) was 1901 µg/g, the “average fecal concentration” value ([3]; Day 10, 200 mg twice-a-day) was 949 µg/g and the “average fecal concentration” value ([3]; Day 10, 400 mg twice-a-day) was 1417 µg/g. For the same substance, the “average fecal concentration” value ([3]; Day 10, 800 mg twice-a-day) was 2647 µg/g, the “serum levels of ramoplanin” value ([3]; Days 1, 5 and 10, hour 0.5-12 after the morning dose) was “no serum levels of ramoplanin were detected” and the fecal concentrations post-treatment ([3]; four days post-treatment) was “remained detectable in some subjects”. The “cumulative recovery in feces” value ([3]; up to Day 4 post-treatment) was 25 % of the administered dose, the storage stability ([4]; 400 mg granulated powder packets) was “stable for at least one year” and the shelf life ([4]; reconstituted ramoplanin aqueous solution) was 48 h. For the same substance, the MIC (S. epidermidis ATCC18972; CAMHB) was 0.5, 0.5 μg/ml, the MIC (S. epidermidis ATCC18972; TSB) was 1, 1 μg/ml and the MIC (S. epidermidis ATCC18972; Table 6, 1st) was 1 µg/mL. For the same substance, the MIC (S. epidermidis ATCC18972; Table 6, 2nd) was 0.25 µg/mL, the MIC (E. faecium A 6350 Line-R; CAMHB) was 0.25, 0.25 μg/ml and the MIC (E. faecium A 6350 Line-R; TSB) was 0.25, 0.25 μg/ml. The MIC (E. faecium UA392; CAMHB) was 0.25, 0.25 μg/ml, the MIC (E. faecium UA392; TSB) was 0.25, 0.25 μg/ml and the MIC (E. faecium UA392; Table 6, 1st) was 0.125 µg/mL. For the same substance, the MIC (E. faecium UA392; Table 6, 2nd) was 0.25 µg/mL, the MIC (E. faecalis ATCC51299; CAMHB) was 0.5, 0.5 μg/ml and the MIC (E. faecalis ATCC51299; TSB) was 0.5, 0.5 μg/ml. For the same substance, the MIC (E. faecalis ATCC51299; Table 6, 1st) was 0.25 µg/mL, the MIC (E. faecalis ATCC51299; Table 6, 2nd) was 0.5 µg/mL and the MIC ([5]; CAMHB) was 0.5 µg/mL and 0.25 µg/mL. The MIC ([5]; TSB) was 0.25, 0.25 μg/ml, the MIC ([5]; Table 6, 1st) was 1 µg/mL and the MIC ([5]; Table 6, 2nd) was 0.5 µg/mL. For the same substance, the MIC (S. epidermidis ATCC35984; CAMHB) was 0.5, 0.5 μg/ml, the MIC (S. epidermidis ATCC35984; TSB) was 0.5, 0.5 μg/ml and the MIC (S. epidermidis ATCC35984; Table 6, 1st) was 1 µg/mL. For the same substance, the MIC (S. epidermidis ATCC35984; Table 6, 2nd) was 0.25 µg/mL, the binding to feces [6] was “bind reversibly to solid components of feces” and the “microbiological activity in feces” value [6] was “microbiologically active in feces”. The “patients with no detectable VRE, number” value (VRE [7]; 100 mg b.i.d. for seven days) was 17 of 21, the “patients with no detectable VRE” value (VRE [7]; 100 mg b.i.d. for seven days) was 81.0% and the “patients with no detectable VRE, number” value (VRE [7]; 400 mg b.i.d. for seven days) was 18 of 20. For the same substance, the “patients with no detectable VRE” value (VRE [7]; 400 mg b.i.d. for seven days) was 90.0%, the “patients VRE free” value (VRE [7]; 100 mg b.i.d.) was 28.6% and the “patients VRE free” value (VRE [7]; 400 mg b.i.d.) was 41.2%. The “patients VRE free, number” value (VRE [7]; 100 mg b.i.d.) was 6 of 21, the “patients VRE free, number” value (VRE [7]; 400 mg b.i.d.) was 7 of 17 and the “number of VRE-free patients” value (VRE [7]; Day 21) was “comparable among all treatment groups”. For the same substance, the MIC (VRE [8]) was 0.125 to 0.25 µg/mL.
